pIC50: −log10 of the molar value. Read-outs that look alike come from different tables or passages of the source.
Assays:
[1] = biological target: T1, baculovirus-expressed ALK (Homo sapiens, UniProt Q9UM73); test: ALK Kinase Assay (ELISA-type, time-resolved fluorescence); format: biochemical
T1 construct: host or cells: baculovirus expression system
Outline: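 Plates coated with phospholipase C-γ substrate (10 μg/mL in TBS); reaction started with 30 ng/ml ALK and run 15 min at 37° C. Phosphorylated substrate detected with Eu-N1-labeled PT66 antibody. IC50 from sigmoidal variable-slope fit of percent inhibition vs log concentration.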

[2] = biological target: T2, c-Met (cytoplasmic domain) (Homo sapiens, UniProt P08581); test: c-Met Kinase Assay (same methods as for ALK, with modifications); format: biochemical
T2 construct: 10 ng/mL c-Met (cytoplasmic domain, Invitrogen Corporation #PV3143); purchased Invitrogen Corporation PV3143
Outline: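 Plates were coated with phospholipase C-γ substrate (10 μg/mL) in TBS, and the reaction was started with 10 ng/mL c-Met cytoplasmic domain and run 15 min at 37 °C. Phosphoproduct was detected with Eu-N1-labelled PT66 antibody. IC50 came from a variable-slope sigmoidal fit of percent inhibition vs log concentration.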

[3] = ALK kinase inhibition, 1 μM ATP, read-out: ALK Activity
[4] = c-Met kinase inhibition, 1 μM ATP, read-out: cMet Activity
[5] = ALK kinase inhibition, 1 μM ATP (Km level), read-out: ALK Activity
[6] = c-Met kinase inhibition, 1 μM ATP (Km level), read-out: cMet Activity
[7] = 1 μM ATP (Km level), read-out: ALK Activity (ALK Kinase Inhibition, IC50)
[8] = 1 μM ATP (Km level), read-out: cMet Activity (c-Met Kinase Inhibition, IC50)
[9] = 1 μM ATP (Km level), 30 ng/ml ALK, 37° C., 15 minutes, read-out: ALK Activity (ALK kinase inhibition, IC50 class)
[10] = 1 μM ATP (Km level), 10 ng/mL c-Met, read-out: cMet Activity (c-Met kinase inhibition, IC50 class)

T2 sequence (P08581 956-1390 limits assumed): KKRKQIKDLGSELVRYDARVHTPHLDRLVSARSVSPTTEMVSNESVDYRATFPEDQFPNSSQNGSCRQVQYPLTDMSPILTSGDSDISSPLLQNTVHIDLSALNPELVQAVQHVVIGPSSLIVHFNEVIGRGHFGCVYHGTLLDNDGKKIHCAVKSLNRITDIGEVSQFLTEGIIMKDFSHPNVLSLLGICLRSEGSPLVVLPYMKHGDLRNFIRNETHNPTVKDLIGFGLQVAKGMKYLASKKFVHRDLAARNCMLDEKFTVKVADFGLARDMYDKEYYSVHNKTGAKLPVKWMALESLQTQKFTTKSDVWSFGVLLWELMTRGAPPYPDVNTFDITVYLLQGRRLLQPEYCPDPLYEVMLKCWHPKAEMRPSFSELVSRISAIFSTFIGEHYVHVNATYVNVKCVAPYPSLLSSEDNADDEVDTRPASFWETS
T1 sequence (Q9UM73 19-1620): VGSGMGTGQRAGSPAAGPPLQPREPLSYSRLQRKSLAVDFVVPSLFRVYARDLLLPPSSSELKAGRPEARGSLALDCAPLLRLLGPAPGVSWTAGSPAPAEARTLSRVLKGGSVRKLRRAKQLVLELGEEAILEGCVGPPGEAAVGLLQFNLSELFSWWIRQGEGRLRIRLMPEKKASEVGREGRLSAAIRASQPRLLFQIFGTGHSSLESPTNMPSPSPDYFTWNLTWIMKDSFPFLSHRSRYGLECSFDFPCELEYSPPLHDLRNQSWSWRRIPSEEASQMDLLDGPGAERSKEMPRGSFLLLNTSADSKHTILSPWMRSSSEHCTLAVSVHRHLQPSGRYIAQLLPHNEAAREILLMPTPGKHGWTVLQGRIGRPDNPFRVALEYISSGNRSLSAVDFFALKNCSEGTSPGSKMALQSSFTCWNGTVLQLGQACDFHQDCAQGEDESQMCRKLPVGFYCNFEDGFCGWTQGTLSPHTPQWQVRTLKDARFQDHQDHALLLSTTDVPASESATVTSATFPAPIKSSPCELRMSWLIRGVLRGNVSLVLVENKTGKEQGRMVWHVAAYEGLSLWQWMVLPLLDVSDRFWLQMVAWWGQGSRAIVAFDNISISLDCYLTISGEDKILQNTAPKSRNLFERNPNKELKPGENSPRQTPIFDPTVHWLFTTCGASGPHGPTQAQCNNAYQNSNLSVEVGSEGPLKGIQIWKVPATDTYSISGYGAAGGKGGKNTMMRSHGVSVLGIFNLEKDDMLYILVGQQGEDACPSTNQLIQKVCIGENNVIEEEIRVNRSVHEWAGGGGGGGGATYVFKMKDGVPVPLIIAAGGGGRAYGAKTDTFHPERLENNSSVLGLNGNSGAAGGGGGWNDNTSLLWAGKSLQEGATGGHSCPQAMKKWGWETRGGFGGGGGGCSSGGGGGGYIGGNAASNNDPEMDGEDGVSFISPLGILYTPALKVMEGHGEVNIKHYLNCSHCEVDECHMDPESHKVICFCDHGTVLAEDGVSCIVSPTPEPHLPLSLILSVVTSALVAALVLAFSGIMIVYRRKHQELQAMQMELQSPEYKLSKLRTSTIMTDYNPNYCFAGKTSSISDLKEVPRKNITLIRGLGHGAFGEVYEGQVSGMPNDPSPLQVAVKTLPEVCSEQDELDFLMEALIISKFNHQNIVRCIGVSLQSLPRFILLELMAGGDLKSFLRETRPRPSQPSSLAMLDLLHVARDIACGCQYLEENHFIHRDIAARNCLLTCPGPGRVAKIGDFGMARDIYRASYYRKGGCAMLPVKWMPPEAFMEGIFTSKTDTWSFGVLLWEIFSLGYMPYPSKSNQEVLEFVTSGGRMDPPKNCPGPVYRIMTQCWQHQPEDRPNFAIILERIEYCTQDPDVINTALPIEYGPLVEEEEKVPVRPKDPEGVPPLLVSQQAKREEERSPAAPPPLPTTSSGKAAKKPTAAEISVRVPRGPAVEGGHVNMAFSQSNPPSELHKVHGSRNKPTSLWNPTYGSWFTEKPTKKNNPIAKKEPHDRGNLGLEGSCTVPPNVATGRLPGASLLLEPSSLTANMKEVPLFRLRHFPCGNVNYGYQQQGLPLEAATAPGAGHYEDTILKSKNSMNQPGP

Question: With `COc1cc2c(cc1Nc1ncc(Cl)c(Nc3ccccc3S(=O)(=O)N(C)C)n1)CCN(CC(=O)N1CCN(C)CC1)CC2` [Example 1538, 2-(5-Chloro-2-{8-methoxy-3-[2-(4-methyl-piperazin-1-yl)-2-oxo-ethyl]-2,3,4,5-tetrahydro-1H-3-benzazepin-7-ylamino}-pyrimidin-4-ylamino)-N,N-dimethyl-benzenesulfonamide] as the compound, how does the pIC50 [1, 3] read?
Answer: > 7.00

Question: And the pIC50 [2, 4]?
Answer: 5.00 to 6.00

Question: With `CNCc1ccccc1Nc1nc(Nc2ccc3c(c2)CCOC(=O)N3C)ncc1Cl` [Example 1791, 2-[5-Chloro-4-(2-methylaminomethyl-phenylamino)-pyrimidin-2-ylamino]-5-methyl-8,9-dihydro-5H-7-oxa-5-aza-benzocyclohepten-6-one] as the compound, how does the pIC50 [1, 3] read?
Answer: 5.00 to 6.00

Question: What about the pIC50 [2, 4] of the same compound?
Answer: 5.00 to 6.00

Question: With `COCCN1C2CCC1c1cc(Nc3ncc(Cl)c(N[C@@H]4CCCC[C@H]4NS(C)(=O)=O)n3)ccc1C2` (stereo partly drawn) [Example 77, N-((1R,2R)-2-{5-Chloro-2-[12-(2-methoxy-ethyl)-12-aza-tricyclo[7.2.1.0*2,7*]dodeca-2(7),3,5-trien-4-ylamino]-pyrimidin-4-ylamino}-cyclohexyl)-methanesulfonamide] as the compound, how does the pIC50 [1, 5] read?
Answer: > 7.00

Question: What about the pIC50 [2, 6] of the same compound?
Answer: 6.00 to 7.00

Question: `NC(=O)[C@@H]1[C@H](Nc2nc(Nc3ccc4c(c3)CCC(N3CCOCC3)CC4)ncc2Cl)[C@H]2C=C[C@@H]1C2` (single isomer, unassigned) [Example 681] was tested. Which pIC50 [1, 7] did it give?
Answer: > 7.00

Question: What about the pIC50 [2, 8] of the same compound?
Answer: 6.00 to 7.00

Question: What does the source list for `CNC(=O)c1ccccc1Nc1nc(Nc2ccc3c(c2)C2CCC(C3)N2C(C)C)ncc1Cl` (stereo not drawn) [Example 80, 2-[5-Chloro-2-(12-isopropyl-12-aza-tricyclo[7.2.1.0*2,7*]dodeca-2(7),3,5-trien-4-ylamino)-pyrimidin-4-ylamino]-N-methyl-benzamide]?
Answer: pIC50 [1, 5]: > 7.00; pIC50 [2, 6]: > 7.00

Question: With `C#CCN1CC2CCC(C1)c1cc(Nc3ncc(Cl)c(Nc4ccccc4S(=O)(=O)N(C)CC#C)n3)ccc12` (stereo not drawn) [Example 288, 2-[5-Chloro-2-(10-prop-2-ynyl-10-aza-tricyclo[6.3.2.0*2,7*]trideca-2,4,6-trien-4-ylamino)-pyrimidin-4-ylamino]-N-methyl-N-prop-2-ynyl-benzenesulfonamide] as the compound, how does the pIC50 [1, 5] read?
Answer: > 7.00

Question: And the pIC50 [2, 6]?
Answer: 6.00 to 7.00

Question: `CNC(=O)c1ccccc1Nc1nc(Nc2ccc3c(c2)N(CCOC)C(=O)CCC3(C)C)ncc1Cl` [Example 1585, 2-{5-Chloro-2-[1-(2-methoxy-ethyl)-5,5-dimethyl-2-oxo-2,3,4,5-tetrahydro-1H-benzo[b]azepin-8-ylamino]-pyrimidin-4-ylamino}-N-methyl-benzamide] was tested. Which pIC50 [1, 3] did it give?
Answer: > 7.00

Question: What about the pIC50 [2, 4] of the same compound?
Answer: 6.00 to 7.00

Question: With `COCCN1CCc2ccc(Nc3ncc(Cl)c(Nc4c(OC)cccc4C(=O)NCC#N)n3)cc2CC1` [Example 1063, 2-{5-Chloro-2-[3-(2-methoxy-ethyl)-2,3,4,5-tetrahydro-1H-benzo[d]azepin-7-ylamino]-pyrimidin-4-ylamino}-N-cyanomethyl-3-methoxy-benzamide] as the compound, how does the pIC50 [1, 9] read?
Answer: 5.00 to 6.00

Question: What about the pIC50 [2, 10] of the same compound?
Answer: 6.00 to 7.00

Question: How did the pIC50 [1, 9] turn out when `COc1cc2c(cc1Nc1ncc(Cl)c(N[C@@H]3CCCC[C@H]3NS(C)(=O)=O)n1)CCC(N1CCOCC1)CC2` (stereo partly drawn) [Example 1051, N-{(1R,2R)-2-[5-Chloro-2-(3-methoxy-7-morpholin-4-yl-6,7,8,9-tetrahydro-5H-benzocyclohepten-2-ylamino)-pyrimidin-4-ylamino]-cyclohexyl}-methanesulfonamide] was run?
Answer: > 7.00

Question: And the pIC50 [2, 10]?
Answer: < 5.00

Question: `CNC(=O)c1cccc(O)c1Nc1nc(Nc2ccc3c(c2)CCN(CCOC)CC3)ncc1Cl` [Example 1227, 2-{5-Chloro-2-[3-(2-methoxy-ethyl)-2,3,4,5-tetrahydro-1H-3-benzazepin-7-ylamino]-pyrimidin-4-ylamino}-3-hydroxy-N-methyl-benzamide] was tested. Which pIC50 [1, 9] did it give?
Answer: 6.00 to 7.00

Question: And the pIC50 [2, 10]?
Answer: 6.00 to 7.00

Question: How did the pIC50 [1, 5] turn out when `COCCN1CCN(C)c2cc(Nc3ncc(Cl)c(Nc4ccc(N5CCOCC5)cc4OC)n3)c(OC)cc2C1` [Example 495, 5-Chloro-N*2*-[7-methoxy-4-(2-methoxy-ethyl)-1-methyl-2,3,4,5-tetrahydro-1H-benzo[e][1,4]diazepin-8-yl]-N*4*-(2-methoxy-4-morpholin-4-yl-phenyl)-pyrimidine-2,4-diamine] was run?
Answer: > 7.00

Question: And the pIC50 [2, 6]?
Answer: < 5.00

Question: With `COc1cc2c(cc1Nc1ncc(Cl)c(Nc3ccc(N4CCN(C)CC4)c(C)c3)n1)CCN(CC(=O)N(C)C)CC2` [Example 792, 2-(7-{5-Chloro-4-[3-methyl-4-(4-methyl-piperazin-1-yl)-phenylamino]-pyrimidin-2-ylamino}-8-methoxy-1,2,4,5-tetrahydro-benzo[d]azepin-3-yl)-N,N-dimethyl-acetamide] as the compound, how does the pIC50 [1, 7] read?
Answer: > 7.00

Question: And the pIC50 [2, 8]?
Answer: < 5.00

Question: With `CCN1CC(=O)Nc2cc(Nc3ncc(Cl)c(Nc4ccc(N5CCOCC5)cc4OC)n3)c(OC)cc2C1` [Example 1661, 8-[5-Chloro-4-(2-methoxy-4-morpholin-4-yl-phenylamino)-pyrimidin-2-ylamino]-4-ethyl-7-methoxy-1,3,4,5-tetrahydro-benzo[e][1,4]diazepin-2-one] as the compound, how does the pIC50 [1, 3] read?
Answer: > 7.00

Question: What about the pIC50 [2, 4] of the same compound?
Answer: < 5.00

Question: `COc1cc2c(cc1Nc1ncc(Cl)c(Nc3ccc(N4CCOCC4)cc3OC)n1)CCOC(=O)N2C` [Example 1506, 2-[5-Chloro-4-(2-methoxy-4-morpholin-4-yl-phenylamino)-pyrimidin-2-ylamino]-3-methoxy-5-methyl-8,9-dihydro-5H-7-oxa-5-aza-benzocyclohepten-6-one] was tested. Which pIC50 [1, 3] did it give?
Answer: > 7.00

Question: What about the pIC50 [2, 4] of the same compound?
Answer: < 5.00

Question: Which results are given for `Cc1noc(-c2ccccc2Nc2nc(Nc3ccc4c(c3)CCOC(=O)N4C)ncc2Cl)n1` [Example 1784, 2-{5-Chloro-4-[2-(3-methyl-[1,2,4]oxadiazol-5-yl)-phenylamino]-pyrimidin-2-ylamino}-5-methyl-8,9-dihydro-5H-7-oxa-5-aza-benzocyclohepten-6-one]?
Answer: pIC50 [1, 3]: 5.00 to 6.00; pIC50 [2, 4]: 5.00 to 6.00

Question: How did the pIC50 [1, 7] turn out when `COCCN1CCc2cc(Nc3ncc(Cl)c(Nc4ccccc4S(=O)(=O)N4CC[C@H](C)C4)n3)c(OC)cc2CC1` [Example 854, 5-Chloro-N(2)-[8-methoxy-3-(2-methoxy-ethyl)-2,3,4,5-tetrahydro-1H-benzo[d]azepin-7-yl]-N(4)-[2-((S)-3-methyl-pyrrolidine-1-sulfonyl)-phenyl]-pyrimidine-2,4-diamine] was run?
Answer: > 7.00

Question: What about the pIC50 [2, 8] of the same compound?
Answer: 6.00 to 7.00

Question: `CCN1C(=O)[C@H](N(C)C)CCc2c1ccc(Nc1ncc(Cl)c(N[C@H]3[C@@H](C(N)=O)[C@@H]4C=C[C@H]3C4)n1)c2OC` (single isomer, unassigned) [Example 1346] was tested. Which pIC50 [1, 9] did it give?
Answer: > 7.00

Question: What about the pIC50 [2, 10] of the same compound?
Answer: 5.00 to 6.00

Question: With `CCNC(=O)c1cccc(F)c1Nc1nc(Nc2cccc3c2OCCCC3(C)C)ncc1Cl` [Example 874, 2-[5-Chloro-2-(5,5-dimethyl-2,3,4,5-tetrahydro-benzo[b]oxepin-9-ylamino)-pyrimidin-4-ylamino]-N-ethyl-3-fluoro-benzamide] as the compound, how does the pIC50 [1, 7] read?
Answer: 6.00 to 7.00

Question: What about the pIC50 [2, 8] of the same compound?
Answer: < 5.00

Question: Which results are given for `COCCNC1CCc2ccc(Nc3ncc(Cl)c(Nc4ccccc4S(=O)(=O)N4CCC(O)C4)n3)c(OC)c2CC1` (stereo not drawn) [Example 695, 1-(2-{5-Chloro-2-[1-methoxy-7-(2-methoxy-ethylamino)-6,7,8,9-tetrahydro-5H-benzocyclohepten-2-ylamino]-pyrimidin-4-ylamino}-benzenesulfonyl)-pyrrolidin-3-ol]?
Answer: pIC50 [1, 7]: > 7.00; pIC50 [2, 8]: 5.00 to 6.00

Question: `COc1cc2c(cc1Nc1ncc(Cl)c(Nc3ccccc3S(=O)(=O)C(C)C)n1)CCC(N1CCN(C)CC1)CC2` (stereo not drawn) [Example 1100, 5-Chloro-N*2*-[3-methoxy-7-(4-methyl-piperazin-1-yl)-6,7,8,9-tetrahydro-5H-benzocyclohepten-2-yl]-N*4*-[2-(propane-2-sulfonyl)-phenyl]-pyrimidine-2,4-diamine] was tested. Which pIC50 [1, 9] did it give?
Answer: > 7.00

Question: What about the pIC50 [2, 10] of the same compound?
Answer: 5.00 to 6.00

Question: `CNC(=O)c1ccccc1Nc1nc(Nc2cc3c(cc2OC)N(C)C(=O)OCC3)ncc1C(F)(F)F` [Example 1513, 2-[2-(3-Methoxy-5-methyl-6-oxo-5,6,8,9-tetrahydro-7-oxa-5-aza-benzocyclohepten-2-ylamino)-5-trifluoromethyl-pyrimidin-4-ylamino]-N-methyl-benzamide] was tested. Which pIC50 [1, 3] did it give?
Answer: > 7.00

Question: What about the pIC50 [2, 4] of the same compound?
Answer: 6.00 to 7.00

Question: `CC1(C)CCC(=O)Nc2ccc(Nc3ncc(Cl)c(Nc4ccccc4-c4nccs4)n3)cc21` [Example 978, 7-[5-Chloro-4-(2-thiazol-2-yl-phenylamino)-pyrimidin-2-ylamino]-5,5-dimethyl-1,3,4,5-tetrahydro-benzo[b]azepin-2-one] was tested. Which pIC50 [1, 7] did it give?
Answer: > 7.00

Question: And the pIC50 [2, 8]?
Answer: < 5.00

Question: `CC(=O)NC1CC(C)(C)c2ccc(Nc3ncc(Cl)c(Nc4c(F)cccc4C(=O)NCC#N)n3)cc2NC1=O` (stereo not drawn) [Example 1636, 2-[2-(3-Acetylamino-5,5-dimethyl-2-oxo-2,3,4,5-tetrahydro-1H-benzo[b]azepin-8-ylamino)-5-chloro-pyrimidin-4-ylamino]-N-cyanomethyl-3-fluoro-Benzamide] was tested. Which pIC50 [1, 3] did it give?
Answer: > 7.00

Question: What about the pIC50 [2, 4] of the same compound?
Answer: > 7.00

Question: With `CCNC(=O)c1cccc(F)c1Nc1nc(Nc2cc3c(cc2OC)CCN(CC(F)F)CC3)ncc1Cl` [Example 777, 2-{5-Chloro-2-[3-(2,2-difluoro-ethyl)-8-methoxy-2,3,4,5-tetrahydro-1H-benzo[d]azepin-7-ylamino]-pyrimidin-4-ylamino}-N-ethyl-3-fluoro-benzamide] as the compound, how does the pIC50 [1, 7] read?
Answer: > 7.00

Question: And the pIC50 [2, 8]?
Answer: 5.00 to 6.00

From patent publication US8148391B2 (Cephalon, Inc., priority 2006, dated 2012)
